Test results from article PMC10702189, “Tetrazine Glycoconjugate for Pretargeted Positron Emission Tomography Imaging of trans-Cyclooctene-Functionalized Molecular Spherical Nucleic Acids” (ACS Omega, 2023).
Where two headings read alike, the source gives them in different places.

How the values were obtained:
GLUT1 [1] = molecular target: T1, GLUT1 (Homo sapiens, UniProt P11166); parameters: method as in PMID 33390018; details: CAL27 cells; cited from earlier work
T1 construct: host or cells: CAL27 squamous cell carcinoma cells
T1 sequence (P11166 1-492): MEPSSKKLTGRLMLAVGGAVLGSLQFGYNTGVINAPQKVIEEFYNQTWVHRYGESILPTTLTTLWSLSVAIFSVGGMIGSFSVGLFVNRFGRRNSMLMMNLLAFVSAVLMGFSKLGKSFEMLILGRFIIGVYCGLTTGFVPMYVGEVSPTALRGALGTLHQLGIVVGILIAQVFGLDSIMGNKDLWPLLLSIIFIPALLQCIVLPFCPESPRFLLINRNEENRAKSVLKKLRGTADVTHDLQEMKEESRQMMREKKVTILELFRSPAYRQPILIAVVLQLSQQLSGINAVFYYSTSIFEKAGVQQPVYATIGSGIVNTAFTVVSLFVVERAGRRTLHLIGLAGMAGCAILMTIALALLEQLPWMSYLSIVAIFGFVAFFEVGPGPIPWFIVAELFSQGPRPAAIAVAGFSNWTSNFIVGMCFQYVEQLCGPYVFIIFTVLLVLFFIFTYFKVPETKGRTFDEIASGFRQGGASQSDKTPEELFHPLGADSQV

GLUT1 [2] = molecular target: T1, GLUT1; assay: Competition for GLUT1 binding with D-[14C]-glucose in CAL27 cells; type: cell-based; details: for IC50: 5 min at r.t., 1.8 μM D-[14C]-glucose, compounds 0.5–1400 μM, read-out: IC50, inhibition of D-[14C]-glucose (GLUT1 binding affinity)
Experimental: (§1) CAL27 squamous cell carcinoma cells (ATCC CRL-2095) were purchased from the American Type Culture Collection (ATCC, Manassas, VA, USA). CAL27 cells were cultured in Dulbecco’s modified Eagle medium (DMEM; Gibco, ThermoFisher Scientific, Waltham, MA, USA) supplemented with L-glutamine (2.0 mM; ThermoFisher Scientific, Waltham, MA, USA), heat-inactivated fetal bovine serum (10%; Gibco, ThermoFisher Scientific, Waltham, MA, USA), and penicillin (50 U/mL)–streptomycin (50 μg/mL) solution (ThermoFisher Scientific, Waltham, MA, USA). CAL27 cells (passages 6–10) were seeded at the density of 5 × 10^5 cells/wells onto 24-well plates. The cells were used in affinity and uptake studies 2 days after seeding. The culture medium was removed, and the cells were washed with prewarmed Hank’s balanced salt solution (HBSS) without glucose (HBSS; 125 mM NaCl, 4.8 mM KCl, 1.2 mM MgSO4, 1.3 mM KH2PO4, 1.3 mM CaCl2, and 25 mM HEPES adjusted to pH 7.4). The cells were then incubated with HBSS at 37 °C for 10 min before the experiments.
The GLUT1-binding ability of the studied compounds was performed by using a known radiolabeled GLUT1 substrate, D-[^14C]-glucose (PerkinElmer, Waltham, MA, USA). Briefly, after preincubation with 500 μL of prewarmed glucose free HBSS, the cells were incubated at r.t. for 5 min with studied compounds (0.5–1400 μM) containing 1.8 μM (0.1 mCi/mL) of D-[^14C]-glucose in glucose free HBSS (250 μL) and D-[^14C]-glucose as blank. The reaction was stopped with ice-cold buffer, and the cells were washed two times with ice-cold buffer on the ice bath, lysed with 250 μL of 1% perchloric acid, and mixed with 1.0 mL of emulsifier safe cocktail (PerkinElmer, Waltham, MA, USA). The radioactivity was measured by a liquid scintillation counter (MicroBeta[2] counter, PerkinElmer, Waltham, MA, USA), (Figure S12). Half-maximal inhibitory concentration (IC50) was calculated by nonlinear regression analysis.

CAL27 cell line = assay: Concentration-dependent cell uptake in CAL27 cells (LC-MS/MS); type: cell-based, human; details: 5–400 μM, 5 min; for Km: read-out: Km of cellular uptake
Experimental: as §1
The cells were first preincubated as described above. The cell uptake of these novel compounds was studied by adding 5–400 μM of studied compounds in 250 μL of prewarmed glucose free HBSS buffer on top of the cell layer and incubating the cells at r.t. for 5 min, based on the optimal performance of D-[^14C]-glucose under these conditions. After incubation, the reaction was stopped with ice-cold buffer; the cells were then washed and lysed as described above.
For the LC-MS/MS analysis, an aliquot was taken from the lysates and diluted with acidified acetonitrile (0.1% formic acid) 1:1, including internal standard (IS). FDG-Tz was used as an internal standard for FDR-Tz, and vice versa. After protein precipitation, the samples were centrifuged for 10 min with 10,000 × g at 4 °C. The supernatant was then collected and transferred to vials for LC-MS/MS analysis.
The samples were analyzed with LC-MS/MS coupled with an Agilent 1200 series Rapid Resolution LC System (Agilent Technologies, Waldbronn, Germany) and Agilent 6410 Triple Quadrupole with an electrospray ionization (ESI) (Agilent Technologies, Palo Alto, CA, USA). The samples were injected (5 μL) into the reversed-phase HPLC column (Zorbax Eclipse XDB-C18 Rapid Resolution 4.6 × 50 mm, […], Agilent Technologies, Palo Alto, CA, USA). The aqueous mobile phase was 0.1% formic acid in water (A), while the organic mobile phase was 0.1% formic acid in acetonitrile (B).
The column temperature was 40 °C and the flow rate of 0.5 mL/min was used, with the following gradient 0–4 min: 5% → 95% B, 4–6 min: 95% B, 6–6.1 min: 95% → 5% B, 6.1–8 min: 5% B. The following instrument optimizations were used: 300 °C sheath gas heat, 6.5 L/min drying gas flow, 25 psi nebulizer pressure, and 4000 V capillary voltage, respectively. Detection was performed by using multiple reaction monitoring (MRM) with the following transitions: m/z 425 → 261 for FDG-Tz and m/z 395 → 261 for FDR-Tz.
The lower limit of quantification (LLOQ) for both studied compounds was 5 nM. These LC-MS/MS methods were also selective, accurate (RSD < 15%) and precise (RSD < 15%) over the range 5.0–2500 nM, with good linearity (R^2 > 0.993).
Three replicates were analyzed from each concentration, and the statistical analyses were performed using GraphPad Prism v.5.03 software (GraphPad Software, San Diego, CA, USA).

| IC50 (GLUT1 [2]) [µM] | Fold higher affinity for GLUT1 compared to FDG-Tz (GLUT1 [2]; ratio of IC50 values) [times] | SMILES | IC50 (GLUT1 [1]) [µM] | Concentration dependence of cellular uptake (shape of curve) (CAL27 cell line) | Vmax of cellular uptake (CAL27 cell line) | Km (CAL27 cell line) [µM] |
| --- | --- | --- | --- | --- | --- | --- |
|  |  | OC[C@H]1OC(O)[C@H](O)[C@@H](O)[C@@H]1O (stereo partly drawn) [D-glucose] | > 1000 |  |  |  |
| 324 |  | O=C(CON=C[C@H](F)[C@@H](O)[C@H](O)C(O)CO)NCc1ccc(-c2nncnn2)cc1 (stereo partly drawn) [FDG-Tz, N-(4-(1,2,4,5-tetrazin-3-yl)benzyl)-2-((((2S,3S,4R)-2-fluoro-3,4,5,6-tetrahydroxyhexylidene)amino)oxy)acetamide] |  | concentration-dependent | 63.2 ± 8.5 pmol/min/mg of protein | 27.6 ± 13.8 |
| 22.4 | ~15 | O=C(CON=C[C@@H](O)[C@@H](O)[C@@H](O)CF)NCc1ccc(-c2nncnn2)cc1 [FDR-Tz, N-(4-(1,2,4,5-tetrazin-3-yl)benzyl)-2-((((2R,3R,4R)-5-fluoro-2,3,4-trihydroxypentylidene)amino)oxy)acetamide, reference compound] |  |  | 27.8 ± 3.7 pmol/min/mg of protein | 3.6 ± 7.8 |
